Here are results for two molecules from US5625032A, “Selective amylin antagonist peptides and uses therefor” (Amylin Pharmaceuticals, Inc., priority 1993, dated 1997).

Entries after “also recorded” stand apart in the source; their conditions may differ. Peptide text beside a SMILES is read from it.

In assay [1] the test system is anesthetized rats. Description: Infusion studies: inhibition of amylin-induced changes in plasma glucose, lactate, calcium and blood pressure. It is filed as in vivo. The note with it: rat, i.v. 1.5 mg bolus then 3 mg/hr for 1.5 h; amylin 50 μg bolus + 50 μg/hour. The procedure:
Briefly, these studies are performed on anesthetized rats as described in International Application Number PCT/US92/00185, "Amylin Activity Assays", published Jul. 22, 1992. At time -0.5 hours, test rats are infused with a 1.5 mg bolus of the antagonist being tested followed by antagonist infusion at 3 mg/hr for a further 1.5 hours. At time 0 hours, a 50 μg bolus of amylin is administered followed by amylin infusion at 50 μg/hr for the remainder of the experiment. In these tests, the capacity of the antagonist to block the hyperglycemic and hyperlactemic effects of amylin are indicated by the inhibition of amylin-evoked increases in plasma glucose and plasma lactate.
Amylin antagonists were evaluated in vivo for their ability to inhibit amylin-induced elevation of plasma glucose and plasma lactate and amylin-evoked depression of plasma calcium and blood pressure. Male Harlan Sprague Dawley rats (age 75-85 days, mass 300-350 g) fasted 18-20 hours were halothane anesthetized and cannulated via the saphenous vein for infusions/injections and via the femoral artery for sampling of glucose/lactate/calcium and for recording arterial pressure. One and a half hours after surgery they were infused with a 1.5 mg intravenous bolus of test antagonist, followed by an infusion of 3 mg/hour for a further 1.5 hours (t=-0.5→+1.0 hr). At t=0 hours (0.5 hours after the start of the primed/continuous antagonist infusion) a 50 μg intravenous bolus of rat amylin was administered followed by an infusion of 50 μg/hour which continued until the end of the experiment. Blood samples were collected every 10 minutes for the first 2 hours of the test (then less frequently),and mean arterial pressure was continuously recorded from t=-0.5→t=+0.5 hours. Control rats, not administered the test substance, were injected with either saline or with primed/continuous amylin at t=0 hours, as described above.

The subject of assay [2] is calcitonin receptors. Description: Calcitonin receptor binding assay (125I salmon calcitonin, T47D cell membranes). The arrangement: species or system human. The note with it: ratio of calcitonin receptor IC50 to amylin receptor IC50. The text has this:
(§1) As more fully described in Example 9, these assays, like the amylin receptor binding assay, are competition assays which measure the ability of compounds to bind specifically to certain membrane-bound receptors. Preferred sources of membrane preparations used in these assays are human SK-N-MC neuroblastoma cells and human T47D carcinoma cells to measure binding to CGRP and calcitonin receptors, respectively. Compounds being assayed compete for binding to the CGRP receptor preparations with ^125 I human αCGRP and to the calcitonin receptor preparations with ^125 I salmon calcitonin. Competition curves are analyzed as described for amylin receptor binding assays. The affinity of a compound for the amylin receptor relative to the affinity of the compound for the CGRP and calcitonin receptors determines the selectivity of the compound.
(§2) The selectivity of antagonist peptides for the amylin receptor relative to the CGRP and calcitonin receptors was determined by using two in vitro radioligand binding assays and comparing the results obtained to those acquired from the amylin receptor binding assay described in Example 7.
(§3) To determine the affinity of the antagonist peptides for calcitonin receptors, human T47D carcinoma cells were used. […] Findlay et al., Cancer Research 40:4764-4767 (1980). Membranes were prepared from confluent cultures of T47D cells as described for SK-N-MC cells. Membranes were incubated with ^125 I salmon calcitonin (labeled at ^22 tyr, 2000 Ci/mmol) at a concentration of 30 pM for 60 minutes at ambient temperature. Additional methods were similar to those described for amylin receptor binding assays in Example 2. The IC50 of AAP40 (SEQ ID NO:40) for ^125 I salmon calcitonin binding to human T47D cell membranes was 50 nM.

Assay [3] concerns the target T1, calcitonin receptors (Homo sapiens, UniProt P30988).
T1 construct: Membranes were prepared from confluent cultures of T47D cells as described for SK-N-MC cells; endogenous in cells; host or cells: human T47D carcinoma cells (membranes)
T1 sequence (P30988 25-474): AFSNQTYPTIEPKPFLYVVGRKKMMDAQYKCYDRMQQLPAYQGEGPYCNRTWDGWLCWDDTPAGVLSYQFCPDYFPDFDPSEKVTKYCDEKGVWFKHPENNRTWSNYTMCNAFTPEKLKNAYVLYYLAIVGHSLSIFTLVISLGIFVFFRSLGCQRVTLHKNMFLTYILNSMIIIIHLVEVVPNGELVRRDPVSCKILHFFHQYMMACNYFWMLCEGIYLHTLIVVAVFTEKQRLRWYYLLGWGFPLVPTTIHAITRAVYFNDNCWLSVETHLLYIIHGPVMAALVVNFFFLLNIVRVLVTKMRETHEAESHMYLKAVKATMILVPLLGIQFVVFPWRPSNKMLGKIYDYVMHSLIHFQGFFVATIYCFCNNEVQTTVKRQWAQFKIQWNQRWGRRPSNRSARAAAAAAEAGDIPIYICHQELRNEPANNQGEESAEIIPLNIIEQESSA
Described as above. The note with it: 30 pM 125I salmon calcitonin, 60 minutes, ambient temperature.
Excerpt: as §1, §2, §3

For assay [4], the target named is T2, CGRP receptors (Homo sapiens, UniProt O60894+Q16602).
T2 construct: SK-N-MC cells were homogenized in 50 mM HEPES buffer, pH 7.4, and membranes were collected by centrifugation; endogenous in cells; host or cells: human SK-N-MC neuroblastoma cells (membranes)
Description: CGRP receptor binding assay (125I human αCGRP, SK-N-MC cell membranes). The note with it: for IC50: 20 pM 125I human αCGRP; for selectivity for amylin receptors than CGRP receptors: ratio of CGRP receptor IC50 to amylin receptor IC50.
Excerpt: as §1, §2
To measure the affinity of the peptides for CGRP receptors, human SK-N-MC neuroblastoma cells were used. […] Van Valen, Piechot & Jurgens, Neuroscience Letters 119:195-198 (1990). SK-N-MC cells were homogenized in 50 mM HEPES buffer, pH 7.4, and membranes were collected by centrifugation for 15 min at 48,000×g. Membranes were suspended at 0.1 to 0.2 mg protein/0.2 ml assay and were incubated in 50 mM HEPES, pH 7.4 containing BSA, bacitracin, and 2 mM MgCl2 with 20 pM ^125 I human αCGRP (labeled at ^10 his, 2000 Ci/mmol) and unlabeled peptide. Additional methods were similar to those described for amylin receptor binding assays in Example 2.

Assay [5] has as its system rat soleus muscle. The experiment in a line: Soleus muscle assay: antagonism of 100 nM rat amylin on insulin-stimulated glycogenesis. It is filed as cell-based. The note with it: read-out: IC50, antagonism of amylin effect on insulin-stimulation of glycogenesis in skeletal muscle. The procedure:
Rat soleus muscle preparations have been in use for many years to study muscle glycogen metabolism and are well known in the field. The soleus muscle assay can be used to measure or test for amylin antagonist activity in vitro. Assays of biological activity of amylin or amylin antagonist preparations in the soleus muscle are performed using previously described methods (e.g., Young, A. A. et al., Am. J. Physiol. 263:E274-281 (1992)).
In summary, while amylin or amylin agonist activity is assessed by measuring the incorporation of radiolabelled glucose into glycogen in soleus muscle in response to an amylin or other amylin agonist, amylin antagonist activity is assessed by measuring the reversal of this inhibition in the presence of 100 nM rat amylin and an amylin antagonist. Concentrations of peptide dissolved in carrier-free buffers are determined by quantitative amino acid analysis, as described herein. The ability of compounds to act as antagonists in this assay can also be evaluated by measuring IC50 values. Standard errors are determined by fitting of sigmoidal dose response curves using a four parameter logistic equation (De Lean, A., Munson, P. J., Guardabasso, V. and Rodbard, D. (1988) ALLFIT, Version 2.7, National Institute of Child Health and Human Development, N.I.H. Bethesda, Md., 1 diskette).
These assays involving the stimulation by insulin of glycogen synthesis in rat soleus muscle in vitro were performed as described by Young, A. A. et al., Am. J. Physiol. 263:E274-281 (1992). Rat amylin inhibited the insulin-stimulated incorporation of radiolabelled glucose into glycogen.
The effects of the peptide in the rat soleus muscle glycogenesis system were measured according to the following method. Insulin-stimulated radioglucose incorporation was measured as described above in the presence of 100 nM rat amylin to maximally suppress incorporation. Increasing concentrations of AAP30 (SEQ ID NO:30), AAP37 (SEQ ID NO:37) and AAP40 (SEQ ID NO:40) were added to test their antagonism of amylin, i.e., to increase radioglucose incorporation under these conditions.

T2 sequence (Q16602 23-461): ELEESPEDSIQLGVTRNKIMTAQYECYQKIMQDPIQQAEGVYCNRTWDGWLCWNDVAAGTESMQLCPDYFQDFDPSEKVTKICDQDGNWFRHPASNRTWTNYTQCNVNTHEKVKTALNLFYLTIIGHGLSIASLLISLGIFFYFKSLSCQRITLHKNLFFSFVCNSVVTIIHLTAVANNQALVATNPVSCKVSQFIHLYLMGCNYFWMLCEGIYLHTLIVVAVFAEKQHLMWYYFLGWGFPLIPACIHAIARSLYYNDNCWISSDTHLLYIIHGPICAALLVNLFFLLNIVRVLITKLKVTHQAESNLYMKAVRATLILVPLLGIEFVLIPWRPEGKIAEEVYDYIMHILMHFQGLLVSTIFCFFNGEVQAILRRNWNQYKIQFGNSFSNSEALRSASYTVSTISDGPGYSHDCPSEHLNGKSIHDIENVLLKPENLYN
T2 sequence (O60894 27-148): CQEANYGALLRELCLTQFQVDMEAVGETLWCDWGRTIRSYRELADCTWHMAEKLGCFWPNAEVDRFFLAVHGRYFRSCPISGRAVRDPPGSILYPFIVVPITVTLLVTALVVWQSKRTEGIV

For orientation: IC50 means the concentration at which inhibition is half-maximal. As to `CC(=O)N[C@@H](C)C(=O)N[C@H](C(=O)N[C@@H](CCC(N)=O)C(=O)N[C@@H](CC(C)C)C(=O)N[C@@H](CC(C)C)C(=O)N[C@@H](C)C(=O)N[C@@H](CC(N)=O)C(=O)N[C@@H](CCC(N)=O)C(=O)N[C@@H](CC(C)C)C(=O)N[C@H](C(=O)N[C@@H](CCCNC(=N)N)C(=O)N[C@@H](CC(C)C)C(=O)N[C@@H](CCC(N)=O)C(=O)N[C@H](C(=O)N[C@@H](Cc1ccc(O)cc1)C(=O)N1CCC[C@H]1C(=O)N[C@@H](CCCNC(=N)N)C(=O)N[C@H](C(=O)N[C@@H](CC(N)=O)C(=O)N[C@H](C(=O)NCC(=O)N[C@@H](CO)C(=O)N[C@@H](CC(N)=O)C(=O)N[C@H](C(=O)N[C@@H](Cc1ccc(O)cc1)C(N)=O)[C@@H](C)O)C(C)C)[C@@H](C)O)[C@@H](C)O)C(C)C)[C@@H](C)O` [AAP30] (Ac-ATQLLANQLVRLQTYPRTNVGSNTY-NH2; N-terminus assumed), in assay [1], the “effect on amylin-induced decrease in blood pressure (hypotension)” value was “did not inhibit amylin-induced decreases in blood pressure”, the “effect on amylin-induced decrease in plasma calcium (hypocalcemia)” value is listed as “did not inhibit”, the “effect on amylin-induced increase in plasma glucose (hyperglycemia)” value is listed as “suppressed; also recorded: prevent” and the “effect on amylin-induced increase in plasma lactate (hyperlactemia)” value is recorded as “suppressed; also recorded: prevent”. For the same molecule, in assay [2], the “selectivity for amylin receptors than calcitonin receptors” value turned out to be 22 fold. In addition, the IC50 in assay [3] turned out to be 0.036 µM. In addition, in assay [4], the IC50 stood at 0.069 µM and the “selectivity for amylin receptors than CGRP receptors” value turned out to be 43 fold. In assay [5], the IC50 was 1.13 µM.
`CC(=O)N[C@@H](C)C(=O)N[C@H](C(=O)N[C@@H](CCC(N)=O)C(=O)N[C@@H](CCCNC(=N)N)C(=O)N[C@@H](CC(C)C)C(=O)N[C@@H](C)C(=O)N[C@@H](CC(N)=O)C(=O)N[C@@H](CCC(N)=O)C(=O)N[C@@H](CC(C)C)C(=O)N[C@H](C(=O)N[C@@H](CCCNC(=N)N)C(=O)N[C@@H](CC(C)C)C(=O)N[C@@H](CCC(N)=O)C(=O)N[C@H](C(=O)N[C@@H](Cc1ccc(O)cc1)C(=O)N1CCC[C@H]1C(=O)N[C@@H](CCCNC(=N)N)C(=O)N[C@H](C(=O)N[C@@H](CC(N)=O)C(=O)N[C@H](C(=O)NCC(=O)N[C@@H](CO)C(=O)N[C@@H](CC(N)=O)C(=O)N[C@H](C(=O)N[C@@H](Cc1ccc(O)cc1)C(N)=O)[C@@H](C)O)C(C)C)[C@@H](C)O)[C@@H](C)O)C(C)C)[C@@H](C)O` [AAP37] (Ac-ATQRLANQLVRLQTYPRTNVGSNTY-NH2): in assay [1], the “effect on amylin-induced decrease in blood pressure (hypotension)” value was “did block this effect”, the “effect on amylin-induced decrease in plasma calcium (hypocalcemia)” value is “did not inhibit”, the “effect on amylin-induced increase in plasma glucose (hyperglycemia)” value is “suppressed; also recorded: prevent” and the “effect on amylin-induced increase in plasma lactate (hyperlactemia)” value is recorded as “suppressed; also recorded: prevent”. The “selectivity for amylin receptors than calcitonin receptors” value in assay [2] was determined as 762 fold. The IC50 in assay [3] was 0.16 µM. Besides, in assay [4], the IC50 was determined as 0.0026 µM and the “selectivity for amylin receptors than CGRP receptors” value turned out to be 12 fold. Further, the IC50 in assay [5] came out at 4.59 µM.
